# Test results reported in US8614324B2, “Filamin A binding anti-inflammatory and analgesic” (priority 2008, dated 2013).
# Assays:
# [1] = biological target: Bn-VAKGL pentapeptide of filamin A (FLNA) (Homo sapiens, UniProt P21333); assay: FITC-NLX-based FLNA screening assay (FLNA peptide binding assay); settings: 10 nM FITC-NLX, read-out: Percent inhibition of FITC-NLX binding
# Experimental: The final assay volume is 100 μl.
# Compounds are tested in triplicate or quadruplicate.
# [2] = biological target: filamin A (Homo sapiens, UniProt P21333); settings: read-out: affinity of binding to filamin A; cited from earlier work
# filamin A, sequence (P21333 whole entry): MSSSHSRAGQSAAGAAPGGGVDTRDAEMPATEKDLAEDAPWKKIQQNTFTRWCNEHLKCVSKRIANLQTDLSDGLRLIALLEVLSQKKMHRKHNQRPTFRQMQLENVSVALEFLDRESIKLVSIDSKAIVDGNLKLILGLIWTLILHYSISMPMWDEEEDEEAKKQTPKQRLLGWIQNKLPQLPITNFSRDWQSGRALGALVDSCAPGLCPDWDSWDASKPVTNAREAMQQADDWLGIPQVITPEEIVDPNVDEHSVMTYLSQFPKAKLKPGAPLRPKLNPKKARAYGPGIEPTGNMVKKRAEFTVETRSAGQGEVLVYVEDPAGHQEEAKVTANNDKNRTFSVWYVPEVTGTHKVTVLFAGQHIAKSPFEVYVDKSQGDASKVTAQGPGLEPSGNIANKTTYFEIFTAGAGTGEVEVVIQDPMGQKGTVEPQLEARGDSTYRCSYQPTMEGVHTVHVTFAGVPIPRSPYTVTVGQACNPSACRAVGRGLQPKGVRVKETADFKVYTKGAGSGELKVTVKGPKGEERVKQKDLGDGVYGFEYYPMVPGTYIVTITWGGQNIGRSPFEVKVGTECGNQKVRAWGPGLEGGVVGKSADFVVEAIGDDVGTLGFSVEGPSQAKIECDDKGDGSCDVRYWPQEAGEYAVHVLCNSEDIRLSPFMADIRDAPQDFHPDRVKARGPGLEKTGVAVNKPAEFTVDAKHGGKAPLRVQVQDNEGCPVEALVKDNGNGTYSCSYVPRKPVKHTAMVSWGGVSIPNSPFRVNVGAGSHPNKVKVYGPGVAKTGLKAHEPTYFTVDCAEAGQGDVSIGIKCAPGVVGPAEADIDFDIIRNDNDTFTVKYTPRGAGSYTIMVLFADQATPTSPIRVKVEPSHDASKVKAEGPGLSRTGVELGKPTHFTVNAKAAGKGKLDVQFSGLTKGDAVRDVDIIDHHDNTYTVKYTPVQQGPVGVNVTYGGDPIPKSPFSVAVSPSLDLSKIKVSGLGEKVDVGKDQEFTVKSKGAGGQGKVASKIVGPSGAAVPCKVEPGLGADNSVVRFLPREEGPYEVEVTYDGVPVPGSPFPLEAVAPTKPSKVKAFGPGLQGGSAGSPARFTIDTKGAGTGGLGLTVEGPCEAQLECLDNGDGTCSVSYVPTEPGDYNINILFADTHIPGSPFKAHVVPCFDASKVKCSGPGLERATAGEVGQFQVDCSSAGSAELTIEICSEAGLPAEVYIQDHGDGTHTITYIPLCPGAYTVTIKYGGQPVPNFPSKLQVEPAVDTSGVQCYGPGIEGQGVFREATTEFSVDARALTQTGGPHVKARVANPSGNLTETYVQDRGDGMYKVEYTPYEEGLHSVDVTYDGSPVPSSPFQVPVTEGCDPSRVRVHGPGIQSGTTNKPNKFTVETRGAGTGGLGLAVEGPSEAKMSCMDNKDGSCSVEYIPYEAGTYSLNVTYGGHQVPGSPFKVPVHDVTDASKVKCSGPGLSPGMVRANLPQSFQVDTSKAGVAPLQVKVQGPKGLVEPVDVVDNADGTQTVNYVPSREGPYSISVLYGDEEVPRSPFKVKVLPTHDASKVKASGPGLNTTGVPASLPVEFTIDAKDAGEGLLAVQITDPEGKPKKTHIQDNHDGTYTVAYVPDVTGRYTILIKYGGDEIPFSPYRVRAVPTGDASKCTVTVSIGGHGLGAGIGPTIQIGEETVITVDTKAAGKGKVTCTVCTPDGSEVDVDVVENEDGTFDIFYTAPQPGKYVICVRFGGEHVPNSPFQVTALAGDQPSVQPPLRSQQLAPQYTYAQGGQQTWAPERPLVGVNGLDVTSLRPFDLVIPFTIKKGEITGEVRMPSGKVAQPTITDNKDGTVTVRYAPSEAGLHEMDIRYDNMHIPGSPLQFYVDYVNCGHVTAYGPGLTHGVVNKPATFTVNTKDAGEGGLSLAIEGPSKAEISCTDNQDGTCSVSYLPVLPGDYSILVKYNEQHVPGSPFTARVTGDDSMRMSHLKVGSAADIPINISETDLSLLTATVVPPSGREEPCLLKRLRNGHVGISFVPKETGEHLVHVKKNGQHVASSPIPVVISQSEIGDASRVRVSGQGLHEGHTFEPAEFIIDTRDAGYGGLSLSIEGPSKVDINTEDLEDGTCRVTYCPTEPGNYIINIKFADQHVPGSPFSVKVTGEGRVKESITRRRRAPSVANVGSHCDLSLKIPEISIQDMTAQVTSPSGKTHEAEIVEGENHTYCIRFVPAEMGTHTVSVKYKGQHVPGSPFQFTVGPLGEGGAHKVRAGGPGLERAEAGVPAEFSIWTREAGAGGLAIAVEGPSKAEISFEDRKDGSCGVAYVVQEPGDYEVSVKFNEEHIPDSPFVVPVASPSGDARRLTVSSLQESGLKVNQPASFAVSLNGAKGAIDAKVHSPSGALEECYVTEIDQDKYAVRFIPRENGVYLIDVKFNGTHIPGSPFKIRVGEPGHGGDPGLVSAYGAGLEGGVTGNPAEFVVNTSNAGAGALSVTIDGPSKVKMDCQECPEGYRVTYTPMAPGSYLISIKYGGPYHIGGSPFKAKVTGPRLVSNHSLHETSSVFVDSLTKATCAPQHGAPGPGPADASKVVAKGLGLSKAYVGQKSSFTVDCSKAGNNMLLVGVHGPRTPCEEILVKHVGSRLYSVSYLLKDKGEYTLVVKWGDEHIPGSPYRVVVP
structure (smiles),measurement,setting,value
"C=CCN1CC[C@]23c4c5ccc(O)c4O[C@H]2C(=O)CC[C@@]3(O)[C@H]1C5 [NLX, naloxone, reference compound]",inhibition at 0.01 µM,[1]; 0.01 μM compound,40.6%
same,inhibition at 0.1 µM,[1]; 0.1 μM compound,47.8%
same,inhibition at 1 µM,[1]; 1 μM compound,51.5%
same,Kd,[2],~4 pM
